In data set [1] the test system is polyvalent resistant (CH strain) houseflies. Nature of the data set: whole plant or invertebrate. Conditions: Musca domestica, topical, 24 h, read-out: mortality, insecticide used without synergist. Type of data set: in vivo, housefly (CH strain). How it is done:
The effect of O-(2-propynyl) oximes with Dimetilan and with GS 13798 was obtained from tests on polyvalent resistant (CH strain) houseflies that had been chilled and to the dorsal region of which was applied an acetone solution of synergist and insecticide at a ratio of two to one. Duplicate tests were performed using 10 four to five-day old female houseflies per test. After dosage, the flies were put in a plastic petri dish with cotton soaked in a sugar-water solution. These doses of insecticide used without synergist caused 10-40% mortality.
(§1) In Table IX, and in the tables following it, the doses of topically applied insecticides and of synergists unless otherwise noted are expressed as micrograms per fly (μg/fly).
The effect of compounds II-C, II-D and II-E with Dimetilan and GS 13798 was determined, following the procedure of Example 5, from tests on polyvalent resistant (CH strain) houseflies. These doses of insecticide used without synergist caused 10-40% mortality.
(§2) The synergistic effect with GS 13005 of compounds I-A, I-B, I-D, I-E, I-F, I-G and I-I was determined from topical application tests to IN/WHO strain, Rutgers A strain and polyvalent CH strain houseflies using the procedures of Example 5. The percent kills of the IN/WHO strain flies after 24 hours are shown in Table XXVIII; of the Rutgers A strain, in Table XXIX; and of the polyvalent CH strain, in Table XXX. The doses of insecticide alone to the CH strain files caused 10-40% mortality.
(§3) The synergistic effect with Diazinon and GS 13005 of various of the benzyl 2-propynyl ethers identified in Tables II and IIa was determined by topical application tests on IN/WHO strain, and Rutgers A strain and polyvalent, resistant, CH strain houseflies using the procedures of Example 5. The percent kills after 24 hours of IN/WHO strain flies are shown in Table XXXI; of Rutgers A strain flies, in Table XXXII; and of CH strain flies, in Table XXXIII. The doses of insecticide alone to the CH strain flies caused 10-40% mortality.
The synergistic effect with pyrethrum of various synergist compounds was determined by topical application tests on polyvalent, resistant CH strain houseflies following the procedure of Example 5. Application of the insecticide alone caused 10-40% mortality.

Data set [2] deals with mice. Nature of the data set: acute toxicity of Dimetilan alone and of synergist alone (intraperitoneal). Type of data set: in vivo, Swiss albino white male mice. The note with it: for Lethality (number of mice dead): 48 hours. How it is done:
To determine the acute toxicity of dimetilan alone, eight dosage levels of Dimetilan, ranging from 4 to 32 mg per kg wer applied to eight, Swiss, albino, white, male mice per dosage level. The mice weighed approximately 23 to 27 grams and were five to size weeks old. The Dimetilan was administered intraperitoneally in 0.1 ml of corn oil one hour after the administration of the same dose of corn oil alone.
To determine the acute toxicity of the synergist alone, various synergists were administered intraperitoneally at a dose of 1000 mg/kg to each of a group of eight mice. The number of animals dead at the end of 72 hours is reported in the left hand column of Table XXXXVI.

Data set [3] relates to IN/WHO strain house flies. Nature of the data set: topical application test, percent kill after 24 hours, IN/WHO strain. Type of data set: in vivo, house fly (susceptible IN/WHO strain). How it is done:
as §1
The synergistic effect of O-(2-propynyl) oximes with mobam was determined from topical application tests on susceptible, female, IN/WHO strain house flies and from tests on resistant, female, Rutgers A strain house flies. The synergist and insecticide were dissolved in ACS Grade acetone in such quantities that a 1.0μ liter volume applied to the thorax of 3-to-5 day old CO2 -anesthetized female adult house flies contained the desired dosage. After being treated, the flies were confined, 10 to a plaster petri dish, with 3-5 dishes/treatment, and held for 24-hr. observation of mortality. Reconstituted skim milk on cotton dental wicks was provided during the holding period. The percent kills after 24 hours are shown in Table X for the IN/WHO strain and Table XI for the Rutgers A strain.
The synergistic effect of benzyl 2-propynyl ethers with mobam was determined from topical application tests on IN/WHO and Rutgers A strain houseflies, following the procedure of Example 5. The percent kills after 24 hours are shown in Table XIV for the IN/WHO strain and in Table XV for the Rutgers A strain.
The effects of varying the insecticide dose and the synergist-insecticide ratio are further illustrated, with synergist compounds II-D, II-E, II-F and Mobam insecticide, in Tables XVI, XVII and XVIII.
The synergistic effect on IN/WHO flies of synergist compound II-K with Dimetilan, pyrolan, Baygon and HRS 1422 is illustrated by the 24 hour percent mortality data in Tables XIX, XX and XXI.
The effect on IN/WHO flies of synergist compound IV-C, identified in Table IV, with mobam was determined by the topical application procedure of Example 5.
The synergistic effect with Diazinon of compounds I-B, I-D, I-F, I-G, I-H and I-I, identified in Tables I and Ia, was determined from topical application tests on IN/WHO strain houseflies and on Rutgers A strain houseflies by the procedure of Example 5. The percent kills after 24 hours are shown in Table XXV for the IN/WHO strain and Table XXVI for the Rutgers A strain.
as §2, §3
The synergist effect on IN/WHO flies of synergist compound II-K with Gardona and Bidrin is illustrated by the 24 hour percent mortality data in Tables XXXIV and XXXV.
The synergistic effect on IN/WHO strain flies and Rutgers A strain flies of compound IV-C with GS 13005 and with Diazinon was determined by the topical application procedure of Example 5. The percent kills of IN/WHO strain flies after 24 hours are shown in Tables XXXVI and XXXVII; the percent kills of Rutgers A strain flies are shown in Tables XXXVIII and XXXIX.

Data set [4] concerns mice. Nature of the data set: synergism of acute toxicity of Dimetilan, GS 13005, Secobarbital and Methadone (intraperitoneal). Type of data set: in vivo, Swiss albino white male mice. Conditions: for number of mice dead: 48 hours. The method, then: The synergism of the acute toxicity of Dimetilan by various synergists was determined by tests on Swiss albino, white male mice aged 5 to 6 weeks and weighing 23 to 27 grams. The synergists and insecticides were dissolved in corn oil and the drugs were dissolved in distilled water. All compounds were administered intraperitoneally by injection in the lower quadrent of the abdomen. The synergist was administered in 0.1 ml of corn oil 1 hour prior to administration of the insecticide. Eight mice were treated, per dosage, with each synergist. The mice were watched for a minimum of 6 hours while held in a glass jar with bedding individually after intraperitoneal injection of the test solutions. Lethality was noted, the animals were weighed and transferred in cages, and food and water were supplied. Control mice were given 0.1 ml of corn oil at the time of administration of the synergist to the test mice and 0.1 ml corn oil plus Dimetilan at the time of administration of the insecticide to the test mice.
By the same procedure, the synergism of acute toxicity of GS 13005, Secobarbital and 6-dimethylamino-4,4-diphenyl-3-heptanone [Methadone] was determined.

Data set [5] relates to German male cockroaches (Blatella Germanicus). Description: topical application to thorax, 24 hour mortality of German male cockroaches. Type of data set: in vivo, German cockroach (Blatella Germanicus). How it is done:
The synergistic effect with mobam of synergist compounds I-B, II-H, II-K and IV-C is further illustrated by the 24 hour mortality data of German male cockroaches (Blatella Germanicus) shown in Table XXXX. The synergists and insecticide were diluted in acetone and applied in small droplets to the thorax of the insect. These doses of synergist alone gave zero percent insect mortality.
The synergistic effect with GS 13005 of compounds I-B, II-H, II-K, II-P, II-Q, II-R and IV-C is illustrated by the 24 hour mortality of German male cockroaches shown in Table XXXXI. These doses of synergist alone caused zero percent insect mortality.

Data set [6] concerns mice. Description: extension of Secobarbital sleeping time by synergists. Type of data set: in vivo, Swiss albino white male mice. The note with it: Secobarbital 37 mg/K; for Relative Sleeping Time: treated/control. The method, then: (§4) The selectivity of the synergist compounds of this invention is illustrated by the results of sleeping-time extension tests and of acute toxicity tests on Swiss albino white male mice.
(§5) The effect of various synergist compounds on sleeping time of sodium secobarbital [Secobarbital] and of 3,3-diethyl-5-methyl-2,4-dioxypiperidine [Noludar] was determined by administering the drug, with and without synergist, to approximately 38-day old male mice weighing from 25 to 30 grams. Synergists were administered in each of two doses, 74.0 mg/kg (dilution being 2.0 mg/0.1 ml corn oil), and 110.0 mg/kg (dilution 3.0 mg/0.1 ml oil). Secobarbital was administered at a dose of 37.0 mg/kg (dilution 1.0 mg/0.1 ml water). Noludar was administered at a dose of 110.0 mg/kg (dilution 3.0 mg/0.1 ml water). The synergist was administered one hour prior to administration of the Secobarbital or Noludar. Secobarbital and Noludar sleeping times were obtained for both the control (drug only) and the treated (synergist plus drug) mice by noting the time lapse between the administration of the drug and the recovery of the righting reflex, i.e. when the animal regains conciousness and can walk up an inclined wooden tray with coordination. The relative sleeping time (R.S.) was noted. The R.S. is the extended sleeping time in the treated mice (synergist plus drug) divided by the sleeping time in the control mice (drug only). The mean sleeping time for the treated mice and the R.S. are shown on Table XXXXIV for various synergist compounds.

In data set [7] the test system is mice. Description: extension of Noludar sleeping time by synergists. Type of data set: in vivo, Swiss albino white male mice. The note with it: Noludar 110 mg/K, synergist 110 mg/K; for Relative Sleeping Time: treated/control. The method, then:
as §4, §5

The mark [8] stands for this setting: synergist alone at doses of Table XXXXI.
Setting [9] is: Dimetilan 8 mg/kg + synergist 80 mg/kg ip, of eight mice.
The mark [10] stands for this setting: Dimetilan 8 mg/kg + synergist 240 mg/kg ip, of eight mice.

As for `Cc1cc(OC(=O)N(C)C)nn1C(=O)N(C)C` [Dimetilan, 1-(dimethylcarbamoyl)-5-methyl-3-pyrazolyl dimethylcarbamate], the mortality at 2 µg/fly in data set [1] lay in the range of 10 to 40%. Further, the “Lethality (number of mice dead)” value is on record as 0 in the data set with mice [2] (Dimetilan alone 4.0 mg/kg ip, of eight mice); 0 in the data set on mice [2] (Dimetilan alone 8.0 mg/kg ip, of eight mice); 1 in the data set with mice [2] (Dimetilan alone 12.0 mg/kg ip, of eight mice); 3 in the data set with mice [2] (Dimetilan alone 16.0 mg/kg ip, of eight mice); 4 with mice [2] (Dimetilan alone 20.0 mg/kg ip, of eight mice); 7 in the data set on mice [2] (Dimetilan alone 24.0 mg/kg ip, of eight mice). Moreover, the “Lethality (number of mice dead)” value with mice [2] (Dimetilan alone 28.0 mg/kg ip, of eight mice) is reported as 8; with mice [2] (Dimetilan alone 32.0 mg/kg ip, of eight mice), 8. In addition, the “dose level just below that at which Dimetilan alone showed lethality” value in the data set on mice [2] (mice, ip) was found to be 8 mg/kg. The “24 hour percent mortality” value in data set [3] (Dimetilan alone 0.031 μg/fly) amounted to 0%; in data set [3] (Dimetilan alone 0.063 μg/fly), 17%; in data set [3] (Dimetilan alone 0.13 μg/fly) it was 43%; in data set [3] (Dimetilan alone 0.25 μg/fly), 100%. In addition, the “number of mice dead” value with mice [4] (control: Dimetilan 8 mg/kg with 0.1 ml oil, 80 mg/kg) came to 0; in the data set with mice [4] (control: Dimetilan 8 mg/kg with 0.1 ml oil, 240 mg/kg), 0.

For the compound `C#CCOC(c1ccc(Cl)cc1)C(C)[N+](=O)[O-]` (stereo not drawn) [IV-C], the “insect mortality, synergist alone” value in data set [5] (synergist alone at doses of Table XXXX) and in data set [5] (setting [8]) was “zero” in each case. Moreover, the “Mean Sleeping Time” value with mice [6] (synergist 74 mg/K) was 112 min; with mice [7], 74 min. Besides, the “Relative Sleeping Time” value in the data set with mice [6] (synergist 74 mg/K) came to 4.7; in the data set on mice [7], 2.5. Further, the entries for the “number of mice dead” value in the data set with mice [4] (setting [9]) and in the data set on mice [4] (setting [10]) were 5 and 7, respectively.

In the case of `C#CCOCc1cccc2ccccc12` [II-R, α-naphthylmethyl 2-propynyl ether], in data set [5] (setting [8]), the “insect mortality, synergist alone” value is listed as “zero”. Besides, the “Mean Sleeping Time” value was found to be 35 min in the data set on mice [6] (synergist 74 mg/K), 96 min in the data set on mice [6] (synergist 110 mg/K) and 49 min in the data set on mice [7]. Besides, the entries for the “Relative Sleeping Time” value in the data set on mice [6] (synergist 74 mg/K), in the data set on mice [6] (synergist 110 mg/K) and with mice [7] were 1.2, 1.6 and 1.7, respectively. In addition, the “number of mice dead” value with mice [4] (setting [9]) was found to be 0; with mice [4] (setting [10]) it was 2.

Consider `CCOCCOCCOC(C)Oc1ccc2c(c1)OCO2` (stereo not drawn) [Sesoxane, reference compound], for which the “Relative Sleeping Time” value is listed as 6.1 in the data set on mice [6] (synergist 74 mg/K), 8.3 in the data set on mice [6] (synergist 110 mg/K) and 3.1 in the data set on mice [7]. Besides, the “number of mice dead” value is given as 1 in the data set with mice [2] (synergist alone 1000 mg/kg ip, 72 hours, of eight mice); 8 in the data set on mice [4] (setting [9]); 8 with mice [4] (setting [10]). Besides, the “mice lethality (number dead)” value was 0 in the data set with mice [4] (GS 13005 71 mg/kg + synergist 213 mg/kg), 5 with mice [4] (Methadone 32 mg/kg + synergist 215 mg/kg) and 6 in the data set with mice [4] (Secobarbital 90 mg/kg + synergist 215 mg/kg).

The term mortality denotes the share of the test organisms that died.

(Values after patent US4020111A, “Propynyloxy alkyl arene insecticides” (priority 1975, dated 1977).)
